According to the NIST ThermoML archive (doi:10.1021/je901020a):
Where “and” joins values, the source holds several entries; their conditions need not be identical. Identical values can stand only once. ± gives the expanded uncertainty stated by the source.

Key:
[1] = refractive index (Na D-line) (dimensionless); conditions: 101.33 kPa, Liquid, Standard Abbe refractometry
[2] = 101 kPa, Liquid; for speed of sound: Pulse-echo method
[3] = refractive index (Na D-line) (dimensionless); xn = mol fraction of the nth substance listed; conditions: 101 kPa, Liquid, Standard Abbe refractometry
[4] = xn = mol fraction of the nth substance listed; conditions: 101 kPa, Liquid; for speed of sound: Pulse-echo method

Cc1ccccc1C [1,2-dimethylbenzene]
Conditions | mass density, [2] [kg/m3] | refractive index, [1] | speed of sound, [2]
298.15 K | 875.4 ± 0.5 | 1.50262 ± 0.001 | 1350 ± 2 m/s
313.15 K | 862.9 ± 0.5 | 1.49466 ± 0.001 | 1290 ± 2 m/s and 1289 ± 2 m/s

Cc1cc(C)cc(C)c1 [1,3,5-trimethylbenzene]
Conditions | mass density, [2] [kg/m3] | refractive index, [1] | speed of sound, [2] [m/s]
298.15 K | 861.1 ± 0.5 | 1.49693 ± 0.001 | 1336 ± 2
313.15 K | 848.8 ± 0.5 | 1.48923 ± 0.001 | 1277 ± 2

Cc1cccc(C)c1 [1,3-dimethylbenzene]
Conditions | mass density, [2] [kg/m3] | refractive index, [1] | speed of sound, [2] [m/s]
298.15 K | 859.8 ± 0.5 | 1.49466 ± 0.001 | 1321 ± 2
313.15 K | 846.9 ± 0.5 | 1.48653 ± 0.001 | 1259 ± 2

C1CCCC1 [cyclopentane] + Cc1cc(C)cc(C)c1
Conditions | mass density, [4] [kg/m3] | refractive index, [3] | speed of sound, [4] [m/s]
298.15 K, x1 = 0.0383 | 857.8 ± 0.5 | 1.49446 ± 0.0011 | 1332 ± 2
298.15 K, x1 = 0.0884 | 853.3 ± 0.5 | 1.49105 ± 0.0011 | 1325 ± 2
298.15 K, x1 = 0.1869 | 843.9 ± 0.5 | 1.48398 ± 0.0011 | 1311 ± 2
298.15 K, x1 = 0.2531 | 837.5 ± 0.5 | 1.47925 ± 0.0011 | 1302 ± 2
298.15 K, x1 = 0.3849 | 823.5 ± 0.5 | 1.46883 ± 0.0011 | 1283 ± 2
298.15 K, x1 = 0.4879 | 811.9 ± 0.6 | 1.4596 ± 0.0011 | 1269 ± 2
298.15 K, x1 = 0.5891 | 799.5 ± 0.6 | 1.45045 ± 0.0011 | 1255 ± 2
298.15 K, x1 = 0.6926 | 786 ± 0.6 | 1.4403 ± 0.0011 | 1241 ± 2
298.15 K, x1 = 0.7807 | 774 ± 0.6 | 1.43111 ± 0.0011 | 1229 ± 2
298.15 K, x1 = 0.8901 | 757.9 ± 0.6 | 1.41728 ± 0.0011 | 1216 ± 2
298.15 K, x1 = 0.9487 | 748.6 ± 0.6 | 1.40994 ± 0.0011 | 1210 ± 2
298.15 K, x1 = 1 | 740 ± 0.6 | 1.40292 ± 0.001 | 1204 ± 2
313.15 K, x1 = 0.0414 | 845.1 ± 0.5 | 1.48675 ± 0.001 | 1271 ± 2
313.15 K, x1 = 0.0948 | 840.2 ± 0.5 | 1.48324 ± 0.001 | 1263 ± 2
313.15 K, x1 = 0.1986 | 830.2 ± 0.5 | 1.47585 ± 0.00097 | 1248 ± 2
313.15 K, x1 = 0.2985 | 819.9 ± 0.5 | 1.46786 ± 0.00094 | 1232 ± 2
313.15 K, x1 = 0.4078 | 807.7 ± 0.6 | 1.45906 ± 0.00091 | 1216 ± 2
313.15 K, x1 = 0.4703 | 800.3 ± 0.6 | 1.45335 ± 0.00087 | 1206 ± 2
313.15 K, x1 = 0.6043 | 783.5 ± 0.6 | 1.4411 ± 0.00088 | 1186 ± 2
313.15 K, x1 = 0.7006 | 770.4 ± 0.6 | 1.4312 ± 0.001 | 1171 ± 2
313.15 K, x1 = 0.8048 | 755.4 ± 0.6 | 1.42003 ± 0.0015 | 1155 ± 2
313.15 K, x1 = 0.9074 | 739.7 ± 0.6 | 1.40648 ± 0.002 | 1140 ± 2
313.15 K, x1 = 0.9595 | 731.4 ± 0.7 | 1.40014 ± 0.0019 | 1134 ± 2
313.15 K, x1 = 1 | 725 ± 0.7 | 1.39456 ± 0.001 | 1130 ± 2

C1CCCC1 [cyclopentane] + Cc1ccc(C)cc1
Conditions | mass density, [4] [kg/m3] | refractive index, [3] | speed of sound, [4] [m/s]
298.15 K, x1 = 0.0462 | 852.5 ± 0.5 | 1.49015 ± 0.0011 | 1305 ± 2
298.15 K, x1 = 0.0885 | 848.7 ± 0.5 | 1.48707 ± 0.0011 | 1300 ± 2
298.15 K, x1 = 0.1848 | 839.6 ± 0.5 | 1.48001 ± 0.0011 | 1289 ± 2
298.15 K, x1 = 0.2886 | 829.3 ± 0.5 | 1.47236 ± 0.0011 | 1277 ± 2
298.15 K, x1 = 0.3869 | 818.8 ± 0.5 | 1.46445 ± 0.0011 | 1266 ± 2
298.15 K, x1 = 0.4744 | 809 ± 0.6 | 1.45737 ± 0.0011 | 1256 ± 2
298.15 K, x1 = 0.5886 | 795.1 ± 0.6 | 1.44669 ± 0.0011 | 1244 ± 2
298.15 K, x1 = 0.6913 | 782.2 ± 0.6 | 1.4372 ± 0.0011 | 1233 ± 2
298.15 K, x1 = 0.7923 | 768.9 ± 0.6 | 1.42618 ± 0.0011 | 1223 ± 2
298.15 K, x1 = 0.8935 | 755 ± 0.6 | 1.41575 ± 0.0011 | 1213 ± 2
298.15 K, x1 = 0.9471 | 747.4 ± 0.6 | 1.40916 ± 0.0011 | 1208 ± 2
298.15 K, x1 = 1 | 740 ± 0.6 | 1.40292 ± 0.001 | 1204 ± 2
313.15 K, x1 = 0.0443 | 839.7 ± 0.5 | 1.48224 ± 0.001 | 1243 ± 2
313.15 K, x1 = 0.0981 | 834.8 ± 0.5 | 1.47862 ± 0.001 | 1236 ± 2
313.15 K, x1 = 0.2012 | 824.7 ± 0.5 | 1.47117 ± 0.00099 | 1224 ± 2
313.15 K, x1 = 0.2998 | 814.5 ± 0.5 | 1.46343 ± 0.00095 | 1211 ± 2
313.15 K, x1 = 0.3542 | 808.5 ± 0.6 | 1.4589 ± 0.00092 | 1204 ± 2
313.15 K, x1 = 0.4799 | 794.3 ± 0.6 | 1.44816 ± 0.00089 | 1189 ± 2
313.15 K, x1 = 0.6021 | 779.4 ± 0.6 | 1.43702 ± 0.00087 | 1173 ± 2
313.15 K, x1 = 0.703 | 766.4 ± 0.6 | 1.42761 ± 0.0009 | 1161 ± 2
313.15 K, x1 = 0.8072 | 752.3 ± 0.6 | 1.41693 ± 0.0011 | 1149 ± 2
313.15 K, x1 = 0.909 | 737.9 ± 0.6 | 1.4057 ± 0.0014 | 1138 ± 2
313.15 K, x1 = 0.9601 | 730.6 ± 0.7 | 1.39936 ± 0.0018 | 1133 ± 2
313.15 K, x1 = 1 | 725 ± 0.7 | 1.39456 ± 0.001 | 1130 ± 2

C1CCCC1 [cyclopentane] + Cc1cccc(C)c1
Conditions | mass density, [4] [kg/m3] | refractive index, [3] | speed of sound, [4] [m/s]
298.15 K, x1 = 0.0391 | 856.1 ± 0.5 | 1.49183 ± 0.0011 | 1315 ± 2
298.15 K, x1 = 0.0908 | 851.1 ± 0.5 | 1.48818 ± 0.0011 | 1308 ± 2
298.15 K, x1 = 0.1894 | 841.2 ± 0.5 | 1.48065 ± 0.0011 | 1296 ± 2
298.15 K, x1 = 0.2859 | 831.2 ± 0.5 | 1.47341 ± 0.001 | 1284 ± 2
298.15 K, x1 = 0.3868 | 820.1 ± 0.5 | 1.46504 ± 0.0011 | 1272 ± 2
298.15 K, x1 = 0.4808 | 809.2 ± 0.6 | 1.45745 ± 0.0011 | 1260 ± 2
298.15 K, x1 = 0.6394 | 789.8 ± 0.6 | 1.44242 ± 0.0011 | 1241 ± 2
298.15 K, x1 = 0.6923 | 782.9 ± 0.6 | 1.43668 ± 0.0011 | 1235 ± 2
298.15 K, x1 = 0.7909 | 769.7 ± 0.6 | 1.42686 ± 0.0011 | 1224 ± 2
298.15 K, x1 = 0.8952 | 755 ± 0.6 | 1.41504 ± 0.0011 | 1214 ± 2
298.15 K, x1 = 0.9514 | 746.9 ± 0.6 | 1.40888 ± 0.0011 | 1208 ± 2
298.15 K, x1 = 1 | 740 ± 0.6 | 1.40292 ± 0.001 | 1204 ± 2
313.15 K, x1 = 0.0431 | 842.9 ± 0.5 | 1.48387 ± 0.0011 | 1253 ± 2
313.15 K, x1 = 0.0812 | 839.2 ± 0.5 | 1.48096 ± 0.0011 | 1248 ± 2
313.15 K, x1 = 0.1859 | 828.6 ± 0.5 | 1.47303 ± 0.0011 | 1234 ± 2
313.15 K, x1 = 0.2864 | 818 ± 0.5 | 1.46521 ± 0.001 | 1220 ± 2
313.15 K, x1 = 0.3348 | 812.6 ± 0.6 | 1.46128 ± 0.0011 | 1213 ± 2
313.15 K, x1 = 0.4741 | 796.4 ± 0.6 | 1.44893 ± 0.0011 | 1194 ± 2
313.15 K, x1 = 0.5747 | 784.1 ± 0.6 | 1.43989 ± 0.0011 | 1181 ± 2
313.15 K, x1 = 0.6933 | 768.8 ± 0.6 | 1.42834 ± 0.0011 | 1166 ± 2
313.15 K, x1 = 0.7932 | 755.2 ± 0.6 | 1.4181 ± 0.0011 | 1153 ± 2
313.15 K, x1 = 0.8961 | 740.5 ± 0.6 | 1.4067 ± 0.0011 | 1141 ± 2
313.15 K, x1 = 0.9472 | 733 ± 0.7 | 1.40122 ± 0.0011 | 1135 ± 2
313.15 K, x1 = 1 | 725 ± 0.7 | 1.39456 ± 0.001 | 1130 ± 2
